Source: ChEMBL document CHEMBL1201862, “PubChem BioAssay data set” (2004)
Active and inactive are the calls of the source.

Key:
Type in all cases: functional
[1] = target: Protein kinase C delta type (Homo sapiens, UniProt Q05655)
[2] = target: Calcium/calmodulin-dependent protein kinase type II subunit gamma (Homo sapiens, UniProt Q13555)
[3] = target: Tyrosine-protein kinase SYK (Homo sapiens, UniProt P43405)
[4] = target: MAP kinase-activated protein kinase 2 (Homo sapiens, UniProt P49137);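 further: measured as one member of a kinome-wide kinase panel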
[5] = target: Cell division cycle 7-related protein kinase (Homo sapiens, UniProt O00311);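 further: value obtained from a kinome-wide kinase panel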
[6] = target: Tyrosine-protein kinase BTK (Homo sapiens, UniProt Q06187)
[7] = target: Serine/threonine-protein kinase PAK 4 (Homo sapiens, UniProt O96013);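 further: value obtained within a kinome profiling panel in which PAK4 was one of the panel members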
[8] = target: Calcium/calmodulin-dependent protein kinase type II subunit delta (Homo sapiens, UniProt Q13557)
[9] = target: Fibroblast growth factor receptor 1 (Homo sapiens, UniProt P11362)
[10] = target: Casein kinase I isoform gamma-1 (Homo sapiens, UniProt Q9HCP0);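 further: measured as the CSNK1G1 member of a kinome profiling panel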
[11] = target: High affinity nerve growth factor receptor (Homo sapiens, UniProt P04629);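 further: NTRK1 tested as one member of a kinome-wide profiling panel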
[12] = target: Proto-oncogene tyrosine-protein kinase Src (Homo sapiens, UniProt P12931);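 further: SRC entry within a kinome-wide kinase profiling panel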
[13] = target: Tyrosine-protein kinase Srms (Homo sapiens, UniProt Q9H3Y6);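 further: SRMS measured as one member of a kinome-wide kinase profiling panel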
[14] = target: T1, Dual specificity tyrosine-phosphorylation-regulated kinase 3 (Homo sapiens, UniProt O43781);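 further: measured as one member of a broad kinase panel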
T1 sequence (O43781 whole entry): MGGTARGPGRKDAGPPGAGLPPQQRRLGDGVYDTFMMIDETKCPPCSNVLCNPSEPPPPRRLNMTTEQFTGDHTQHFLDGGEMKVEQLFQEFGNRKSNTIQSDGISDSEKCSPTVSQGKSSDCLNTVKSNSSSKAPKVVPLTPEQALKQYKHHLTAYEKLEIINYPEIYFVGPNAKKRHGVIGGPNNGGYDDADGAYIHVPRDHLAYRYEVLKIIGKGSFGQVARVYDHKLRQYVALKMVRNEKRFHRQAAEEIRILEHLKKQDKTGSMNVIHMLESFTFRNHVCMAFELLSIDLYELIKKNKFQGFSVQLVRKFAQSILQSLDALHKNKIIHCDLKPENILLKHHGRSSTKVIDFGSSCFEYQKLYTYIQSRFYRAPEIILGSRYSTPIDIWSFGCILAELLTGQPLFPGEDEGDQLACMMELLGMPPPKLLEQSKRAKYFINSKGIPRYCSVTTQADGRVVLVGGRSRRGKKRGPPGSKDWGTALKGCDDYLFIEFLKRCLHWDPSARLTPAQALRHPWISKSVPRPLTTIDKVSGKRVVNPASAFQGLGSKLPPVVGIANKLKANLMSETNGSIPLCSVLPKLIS

[15] = target: MAP kinase-activated protein kinase 3 (Homo sapiens, UniProt Q16644);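 further: value comes from a kinome-wide profiling panel in which MAPKAPK3 is one of the panel members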
[16] = target: Vascular endothelial growth factor receptor 2 (Homo sapiens, UniProt P35968)
[17] = target: T2, cAMP-dependent protein kinase catalytic subunit PRKX (Homo sapiens, UniProt P51817)
T2 sequence (P51817 whole entry): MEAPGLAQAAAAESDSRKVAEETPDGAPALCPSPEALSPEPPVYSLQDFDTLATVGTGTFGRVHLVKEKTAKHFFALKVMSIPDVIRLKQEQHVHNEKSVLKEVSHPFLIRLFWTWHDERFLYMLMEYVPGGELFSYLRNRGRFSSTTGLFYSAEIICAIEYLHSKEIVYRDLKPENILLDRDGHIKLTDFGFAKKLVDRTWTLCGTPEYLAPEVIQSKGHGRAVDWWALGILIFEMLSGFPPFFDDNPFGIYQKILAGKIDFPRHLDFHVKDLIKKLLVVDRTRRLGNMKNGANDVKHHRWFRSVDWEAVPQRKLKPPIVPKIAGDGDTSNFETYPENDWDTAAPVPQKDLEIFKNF

[18] = target: Protein-tyrosine kinase 6 (Homo sapiens, UniProt Q13882)
[19] = target: Mitogen-activated protein kinase kinase kinase kinase 5 (Homo sapiens, UniProt Q9Y4K4);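 further: measured as one member of a kinome-spanning kinase panel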
[20] = target: Tyrosine-protein kinase Fyn (Homo sapiens, UniProt P06241)
[21] = target: T3, Homeodomain-interacting protein kinase 4 (Homo sapiens, UniProt Q8NE63)
T3 sequence (Q8NE63 whole entry): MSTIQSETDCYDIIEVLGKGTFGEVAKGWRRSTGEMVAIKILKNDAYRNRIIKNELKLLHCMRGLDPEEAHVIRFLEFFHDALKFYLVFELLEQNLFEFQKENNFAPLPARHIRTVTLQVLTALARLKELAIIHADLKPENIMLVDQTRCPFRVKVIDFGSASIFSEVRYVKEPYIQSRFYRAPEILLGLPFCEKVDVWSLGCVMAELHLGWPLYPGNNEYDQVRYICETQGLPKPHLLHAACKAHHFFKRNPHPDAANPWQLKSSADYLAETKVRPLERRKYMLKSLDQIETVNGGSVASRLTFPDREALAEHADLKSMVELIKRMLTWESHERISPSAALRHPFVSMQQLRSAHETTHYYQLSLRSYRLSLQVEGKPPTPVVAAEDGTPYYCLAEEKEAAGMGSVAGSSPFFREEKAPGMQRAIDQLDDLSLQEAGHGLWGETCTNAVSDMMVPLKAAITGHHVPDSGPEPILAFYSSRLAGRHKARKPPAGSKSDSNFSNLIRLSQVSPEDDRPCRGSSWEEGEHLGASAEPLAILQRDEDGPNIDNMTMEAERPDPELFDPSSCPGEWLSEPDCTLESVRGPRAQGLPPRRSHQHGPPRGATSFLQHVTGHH

[22] = target: Serine/threonine-protein kinase Nek2 (Homo sapiens, UniProt P51955)
[23] = target: Glycogen synthase kinase-3 beta (Homo sapiens, UniProt P49841);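 further: value comes from a broad kinome profiling panel, with GSK3B as the panel member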
Chain of Glycogen synthase kinase-3 beta (P49841 whole entry): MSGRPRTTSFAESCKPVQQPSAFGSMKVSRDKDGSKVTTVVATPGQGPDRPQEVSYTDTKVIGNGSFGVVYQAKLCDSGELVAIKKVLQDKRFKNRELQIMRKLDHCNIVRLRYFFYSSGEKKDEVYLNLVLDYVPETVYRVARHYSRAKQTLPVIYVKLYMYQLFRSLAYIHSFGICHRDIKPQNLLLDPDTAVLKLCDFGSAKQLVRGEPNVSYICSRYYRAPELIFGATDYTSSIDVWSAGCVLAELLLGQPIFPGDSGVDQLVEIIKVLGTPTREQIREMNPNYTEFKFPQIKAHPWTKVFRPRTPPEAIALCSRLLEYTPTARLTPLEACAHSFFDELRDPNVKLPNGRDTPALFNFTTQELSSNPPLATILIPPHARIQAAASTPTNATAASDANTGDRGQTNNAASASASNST

Chain of Casein kinase I isoform gamma-1 (Q9HCP0 whole entry, canonical isoform): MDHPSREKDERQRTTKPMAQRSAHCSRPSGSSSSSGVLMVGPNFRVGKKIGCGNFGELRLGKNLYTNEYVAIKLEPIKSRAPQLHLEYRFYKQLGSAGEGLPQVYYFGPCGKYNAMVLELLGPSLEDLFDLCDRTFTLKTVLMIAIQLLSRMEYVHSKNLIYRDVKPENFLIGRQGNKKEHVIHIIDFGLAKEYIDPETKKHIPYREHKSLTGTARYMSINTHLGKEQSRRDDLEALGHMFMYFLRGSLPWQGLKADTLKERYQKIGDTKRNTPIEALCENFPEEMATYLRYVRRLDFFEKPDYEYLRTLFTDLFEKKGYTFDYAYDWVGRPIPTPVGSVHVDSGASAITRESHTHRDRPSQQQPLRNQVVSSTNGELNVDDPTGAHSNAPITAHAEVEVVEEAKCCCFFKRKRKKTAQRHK
Chain of Calcium/calmodulin-dependent protein kinase type II subunit gamma (Q13555 whole entry): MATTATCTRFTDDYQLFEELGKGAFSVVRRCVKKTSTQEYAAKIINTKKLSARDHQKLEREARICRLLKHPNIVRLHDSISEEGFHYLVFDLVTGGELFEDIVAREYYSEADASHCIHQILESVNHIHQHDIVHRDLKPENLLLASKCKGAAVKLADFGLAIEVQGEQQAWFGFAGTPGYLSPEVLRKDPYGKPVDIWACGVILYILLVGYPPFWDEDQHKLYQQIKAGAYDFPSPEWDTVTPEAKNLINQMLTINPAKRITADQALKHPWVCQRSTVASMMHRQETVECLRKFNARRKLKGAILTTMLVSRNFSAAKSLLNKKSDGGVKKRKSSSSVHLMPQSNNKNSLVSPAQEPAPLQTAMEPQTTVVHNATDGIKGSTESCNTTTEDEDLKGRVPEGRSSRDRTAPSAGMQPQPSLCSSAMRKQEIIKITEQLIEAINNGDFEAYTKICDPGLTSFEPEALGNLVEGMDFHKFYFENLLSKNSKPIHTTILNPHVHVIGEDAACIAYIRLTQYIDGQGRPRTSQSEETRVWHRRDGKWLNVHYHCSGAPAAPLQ
Chain of Protein kinase C delta type (Q05655 whole entry): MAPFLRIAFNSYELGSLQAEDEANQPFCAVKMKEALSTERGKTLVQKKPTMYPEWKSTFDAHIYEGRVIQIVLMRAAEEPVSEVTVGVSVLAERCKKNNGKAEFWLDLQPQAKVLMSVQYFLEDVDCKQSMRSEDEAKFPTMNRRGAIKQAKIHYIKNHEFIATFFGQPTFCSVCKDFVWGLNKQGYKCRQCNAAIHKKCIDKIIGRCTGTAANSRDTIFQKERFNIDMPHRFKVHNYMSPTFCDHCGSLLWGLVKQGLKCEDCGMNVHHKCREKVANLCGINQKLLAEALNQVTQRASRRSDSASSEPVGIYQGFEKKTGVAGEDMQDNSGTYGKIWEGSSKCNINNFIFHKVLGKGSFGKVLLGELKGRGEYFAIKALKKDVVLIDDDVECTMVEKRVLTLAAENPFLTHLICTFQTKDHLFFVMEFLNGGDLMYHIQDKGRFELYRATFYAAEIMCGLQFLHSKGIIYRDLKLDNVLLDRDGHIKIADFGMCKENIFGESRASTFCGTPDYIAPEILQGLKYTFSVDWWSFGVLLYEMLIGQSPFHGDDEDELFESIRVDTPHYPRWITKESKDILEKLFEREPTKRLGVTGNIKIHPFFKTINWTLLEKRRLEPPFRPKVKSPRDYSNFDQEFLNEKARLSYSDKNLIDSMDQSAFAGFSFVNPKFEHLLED
Chain of Vascular endothelial growth factor receptor 2 (P35968 whole entry): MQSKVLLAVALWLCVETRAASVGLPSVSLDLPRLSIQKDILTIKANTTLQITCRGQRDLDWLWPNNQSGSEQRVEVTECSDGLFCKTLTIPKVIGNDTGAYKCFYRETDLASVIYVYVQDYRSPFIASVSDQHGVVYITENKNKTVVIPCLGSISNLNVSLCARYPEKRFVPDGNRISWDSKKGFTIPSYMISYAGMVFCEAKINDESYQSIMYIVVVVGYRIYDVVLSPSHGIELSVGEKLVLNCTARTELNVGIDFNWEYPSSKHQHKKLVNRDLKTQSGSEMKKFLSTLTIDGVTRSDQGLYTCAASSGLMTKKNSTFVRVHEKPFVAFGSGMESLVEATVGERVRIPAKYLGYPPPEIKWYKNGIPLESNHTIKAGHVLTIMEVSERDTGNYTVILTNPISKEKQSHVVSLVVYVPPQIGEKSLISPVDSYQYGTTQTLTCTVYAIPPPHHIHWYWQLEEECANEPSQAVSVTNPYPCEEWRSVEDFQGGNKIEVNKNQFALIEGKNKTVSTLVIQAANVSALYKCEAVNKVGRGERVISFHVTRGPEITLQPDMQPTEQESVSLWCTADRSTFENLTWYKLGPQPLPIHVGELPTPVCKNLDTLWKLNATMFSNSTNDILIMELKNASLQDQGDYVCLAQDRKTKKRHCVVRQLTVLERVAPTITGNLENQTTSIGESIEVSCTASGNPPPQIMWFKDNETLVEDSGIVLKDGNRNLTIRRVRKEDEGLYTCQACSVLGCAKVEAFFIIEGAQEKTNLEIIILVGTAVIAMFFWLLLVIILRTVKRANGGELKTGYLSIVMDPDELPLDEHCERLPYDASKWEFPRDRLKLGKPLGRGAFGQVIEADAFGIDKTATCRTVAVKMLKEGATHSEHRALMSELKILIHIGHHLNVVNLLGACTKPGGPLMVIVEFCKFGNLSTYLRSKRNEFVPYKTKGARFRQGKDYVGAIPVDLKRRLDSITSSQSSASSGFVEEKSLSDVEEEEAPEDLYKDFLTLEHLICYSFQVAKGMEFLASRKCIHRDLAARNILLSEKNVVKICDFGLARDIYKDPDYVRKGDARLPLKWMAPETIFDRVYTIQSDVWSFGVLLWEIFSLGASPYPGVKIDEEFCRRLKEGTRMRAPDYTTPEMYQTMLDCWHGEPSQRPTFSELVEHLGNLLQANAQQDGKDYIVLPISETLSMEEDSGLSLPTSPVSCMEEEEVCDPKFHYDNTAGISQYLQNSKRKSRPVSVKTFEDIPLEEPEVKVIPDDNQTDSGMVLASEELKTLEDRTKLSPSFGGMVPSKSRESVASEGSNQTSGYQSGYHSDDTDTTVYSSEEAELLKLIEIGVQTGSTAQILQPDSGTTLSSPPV
Chain of Cell division cycle 7-related protein kinase (O00311 whole entry): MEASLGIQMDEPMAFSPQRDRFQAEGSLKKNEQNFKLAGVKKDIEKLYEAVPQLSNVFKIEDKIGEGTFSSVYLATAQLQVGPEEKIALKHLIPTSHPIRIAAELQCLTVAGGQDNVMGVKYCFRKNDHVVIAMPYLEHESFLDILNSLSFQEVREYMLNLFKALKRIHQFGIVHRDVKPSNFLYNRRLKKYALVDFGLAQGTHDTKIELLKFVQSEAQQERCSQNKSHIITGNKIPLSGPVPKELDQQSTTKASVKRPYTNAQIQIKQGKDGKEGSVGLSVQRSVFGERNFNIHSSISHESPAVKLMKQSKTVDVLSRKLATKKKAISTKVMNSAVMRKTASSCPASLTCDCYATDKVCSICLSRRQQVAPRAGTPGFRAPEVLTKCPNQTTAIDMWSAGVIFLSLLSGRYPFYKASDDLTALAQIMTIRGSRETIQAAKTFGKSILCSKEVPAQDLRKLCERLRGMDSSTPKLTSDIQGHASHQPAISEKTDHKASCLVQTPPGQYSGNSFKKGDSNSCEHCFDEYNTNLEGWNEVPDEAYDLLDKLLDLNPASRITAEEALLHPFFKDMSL
Chain of Proto-oncogene tyrosine-protein kinase Src (P12931 2-536 limits assumed): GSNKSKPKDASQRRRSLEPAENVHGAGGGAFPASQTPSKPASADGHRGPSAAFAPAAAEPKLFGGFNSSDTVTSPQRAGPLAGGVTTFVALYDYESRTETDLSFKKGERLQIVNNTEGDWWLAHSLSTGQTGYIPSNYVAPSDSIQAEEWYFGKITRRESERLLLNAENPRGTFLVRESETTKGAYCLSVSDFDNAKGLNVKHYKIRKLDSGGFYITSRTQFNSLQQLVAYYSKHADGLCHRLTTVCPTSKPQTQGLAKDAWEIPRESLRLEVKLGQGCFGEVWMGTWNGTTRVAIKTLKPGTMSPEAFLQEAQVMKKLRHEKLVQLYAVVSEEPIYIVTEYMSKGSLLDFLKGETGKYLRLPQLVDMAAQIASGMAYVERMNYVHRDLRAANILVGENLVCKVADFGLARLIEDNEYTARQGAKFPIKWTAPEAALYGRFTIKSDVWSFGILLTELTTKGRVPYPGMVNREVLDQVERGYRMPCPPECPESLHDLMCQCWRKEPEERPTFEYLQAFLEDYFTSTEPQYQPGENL
Chain of Calcium/calmodulin-dependent protein kinase type II subunit delta (Q13557 whole entry): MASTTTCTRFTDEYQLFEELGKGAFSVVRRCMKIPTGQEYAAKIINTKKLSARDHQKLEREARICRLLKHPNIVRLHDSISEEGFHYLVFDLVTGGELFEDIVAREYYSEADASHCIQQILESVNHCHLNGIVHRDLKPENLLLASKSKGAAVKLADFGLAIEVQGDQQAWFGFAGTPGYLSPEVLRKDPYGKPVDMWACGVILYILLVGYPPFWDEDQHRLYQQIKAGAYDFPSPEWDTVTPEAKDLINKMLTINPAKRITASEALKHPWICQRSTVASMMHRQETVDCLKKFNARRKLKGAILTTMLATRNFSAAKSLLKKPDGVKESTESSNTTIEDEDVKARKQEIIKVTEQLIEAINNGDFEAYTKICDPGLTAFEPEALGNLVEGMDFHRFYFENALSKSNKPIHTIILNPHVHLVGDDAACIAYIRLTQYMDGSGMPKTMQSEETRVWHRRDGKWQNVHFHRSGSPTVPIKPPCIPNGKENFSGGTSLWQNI

| SMILES | Ki [1] | Ki [2] | Ki [3] | Ki [4] | Ki [5] | Ki [6] | Ki [7] | Ki [8] | Ki [9] | Ki [10] | Ki [11] | Ki [12] | Ki [13] | Ki [14] | Ki [15] | Ki [16] | Ki [17] | Ki [18] | Ki [19] | Ki [20] | also measured |
| --- | --- | --- | --- | --- | --- | --- | --- | --- | --- | --- | --- | --- | --- | --- | --- | --- | --- | --- | --- | --- | --- |
| NC(=O)c1cc(-c2ccnc(N)n2)[nH]c1-c1ccc(Cl)cc1Cl | 158 nM (active) | 6310 nM (active) | > 1580 nM (inactive) | > 7940 nM (inactive) | 0.2 nM (active) | > 1260 nM (inactive) | > 5010 nM (inactive) | > 3160 nM (inactive) | > 3980 nM (inactive) | 25.1 nM (active) | > 2510 nM (inactive) | > 2000 nM (inactive) | > 1580 nM (inactive) | 10 nM (active) | > 10000 nM (inactive) | 794 nM (active) | 1000 nM (active) | > 2510 nM (inactive) | > 2510 nM (inactive) | > 794 nM (inactive) | pKi [1]: 6.8; pKi [2]: 5.2; pKi [5]: 9.7; pKi [10]: 7.6; pKi [14]: 8; pKi [16]: 6.1; pKi [17]: 6; Ki [21]: 398 nM (active); pKi [21]: 6.4; Ki [22]: > 10000 nM (inactive); Ki [23]: 6.31 nM (active); pKi [23]: 8.2 |
| NC(COc1cncc(-c2ccc3c(c2)C(=Cc2ccco2)C(=O)N3)c1)Cc1c[nH]c2ccccc12 (stereo not given) | 20 nM (active) | 25.1 nM (active) | 1580 nM (active) | 2000 nM (active) | 251 nM (active) | 501 nM (active) | 1260 nM (active) | 15.8 nM (active) | 794 nM (active) | 1260 nM (active) | 79.4 nM (active) | 398 nM (active) | > 1580 nM (inactive) | 7.94 nM (active) | > 10000 nM (inactive) | 398 nM (active) | 7.94 nM (active) | > 2510 nM (inactive) | 63.1 nM (active) | 398 nM (active) | Ki [21]: 63.1 nM (active); Ki [22]: 2000 nM (active); Ki [23]: 63.1 nM (active) |
